# Reference: patent US20250195660A1, “INACTIVATING BACTERIA WITH ELECTRIC PULSES AND ANTIBIOTICS” (Purdue Research Foundation, priority 2018, published 2025)
# Assays:
# [1] = tested on: gentamicin, streptomycin and sulfonamide resistant Pseudomonas aeruginosa (BEI Resources NR-31040); assay: Inactivation of P. aeruginosa by 300 ns electric pulses and/or antibiotics (CFU plating); assay type: cell-based; conditions: 20 kV/cm EPs + 20 μg/mL
# Description: Except for rifampicin, the five other antibiotics in these examples primarily target gram-positive bacteria and are largely ineffective or not used against gram-negative bacteria in a clinical setting.
# A Blumlein pulsed generator consisting of two lines comprised of twelve 2000 pF capacitors connected by inductors produced 300 ns EPs with rise-times of 30 ns and fall-times of 35 ns at a repetition frequency of 1 Hz (12). The EPs were applied to a standard 2 mm gap electroporation cuvette (Dot Scientific R) filled with a solution containing the microorganisms. Used was a Luria broth of 0.5% salinity (5 grams of NaCl/Liter) for the solution to electrically match the resistance of the sample with the impedance of the pulse generator (11Ω) to prevent signal reflection. The voltage measurements were taken using a LeCroy PPE 20 kV high voltage probe with a 1000:1 attenuation recorded by a TeleDyne LeCroy® Waverunner 6 Zi Oscilloscope with a bandwidth of 4 GHZ.
# The gram-negative strains included a carbapenem-resistant Escherichia coli (ATCC® BA-2452TM, New Delhi metallo-beta-lactamase NDM-1 positive.), Klebsiella pneumoniae (ATCC® BAA-2146TM NDM-I positive), and a gentamicin, streptomycin and sulfonamide resistant Pseudomonas aeruginosa (BEI Resources NR-31040). Assessed was the gram-positive strain of methicillin resistant Staphylococcus aureus (USA300-0114 strain), which is also resistant to erythromycin and tetracycline. Samples were cultured in Luria broth (LB Broth Lennox, powder microbial growth medium, SIGMA-ALDRICH®) by taking 25 mL of broth in a 50 mL sterile conical tube and incubating in a shaker for 16 h at 37° C. Samples were diluted 50% by adding 25 mL media to the incubated sample as we plated controls for each experiment and condition.
# Samples were treated in 2 mm gap cuvettes containing 365 μL of sample between the electrodes, with bio-grade mineral oil added on top of the electrode plates to prevent arcing.
# To establish a common baseline for comparing different NSEP parameters, we fixed the energy density U delivered to the cuvettes according to Formula (1) (above). For 300 ns EPs, 500 EPs at 20 kV/cm and 222 EPs at 30 kV/cm delivered the same energy to the sample.
# Tissue culture Petri dishes from VWR R (15 cm diameter, 10 mm height) were utilized for plating. Each plate was covered with 15 mL of Luria broth (Agar, microbiology tested powder, SIGMA-ALDRICH®), which was prepared by adding 20 g of LB Lennox (SIGMA-ALDRICH) and 15 g/L of agar to water prior to being autoclaved. The salinity of the agar was the same as the LB (0.5% NaCl) to minimize additional environmental stressors on the bacteria.
# Removed was 20 μL from each cuvette and added to 180 μL of PBS in a 96-well dish in triplicate. Each well was then diluted by a ratio of 10:1 five additional times by taking 20 μL of the diluted sample into subsequent wells using multi-channel pipettes (using fresh tips for each dilution). Plated were the six dilutions of each sample two times each by adding 4 μL from each well onto the Petri dish using a multi-channel pipette, which allowed the plating of all three replicates on the same plate to achieve n=6. These plates were then cultured overnight in an incubator at 37° C., and counted the next day.
# [2] = tested on: Esherichia coli (gram negative bacterium number 25922); assay: Inactivation of E. coli by 300 ns electric pulses combined with antibiotic (CFU plating); assay type: cell-based, Escherichia coli
# Procedure: Equipment. Used was a capacitor based Blumlein pulse generator with a spark gap switch to produce trapezoidal EPs of 300 ns duration at the peak with rise and fall times close to 50 ns. Multiple pulses were delivered at a frequency of 1 Hz.
# The samples were treated in a standard electroporation cuvette (Dot Scientific) whose resistance must match the pulse generator's impedance to prevent pulse reflection. […] Used were 2 mm cuvettes to ensure consistency between tests, and the applied voltage was measured across the cuvette using a LeCroy PPE 20 kV high voltage probe with a 1000:1 attenuation feeding into a TeleDyne LeCroy Waverunner 6 Zi Oscilloscope capable of measuring signals up to 4 GHz. Assuming a purely parallel plate geometry with minimal fringing gives an electric field E=V/d, where V is the peak voltage of the applied pulse and d is the gap distance.
# Sample Preparation. These experiments assessed Stapphylococcus aureus (gram positive bacterium number 25923) from ATCC and Esherichia coli (gram negative bacterium number 25922) inoculated in luria broth (LB Broth Lennox, powder microbial growth medium. SIGMA-ALDRICH) by taking 8 mL of broth in a 50 mL sterile conical tube and incubating in a shaker for 20 h at 37° C. The sample was then diluted with fresh Luria broth until attaining an optical density of 0.25 for 100 μL on a photospectrometer (Molecular Devices) for a wavelength of 562 nm as measured in a 96-well plate. The optical density, which varies with growth or tube volume, was determined experimentally and set between 1×10^8 and 1.5×10^8 colony forming units (CFUs)/mL for the samples to be pulsed. These samples were then plated at dilutions between 10-6 and 100 (no dilution) depending on the effectiveness of the pulse treatments.
# Electric Pulse Treatment Protocol. […] Although no consensus exists on a universal scaling law for applied EP “dose,” we fixed the energy density
# [formula] • where N is the number of pulses and τ is the pulse duration. Fixing U for E=40, 30, and 20 kV/cm gave N=250, 445, and 1000 pulses, respectively. Cultures were plated as described below.
# Cuvettes were filled with 365 μL of sample (sufficient to just cover the electrodes) and then 250 μL of molecular biology grade mineral oil was placed on top.
# Added were 0.2, 2, and 20 μg/mL of each drug to the initial bacterial dilutions prior to pulsing. Samples were immediately placed on ice to minimize cell division and reduce variability. These aliquots were also used to plate individual unpulsed controls for each drug concentration.
# Plating. Plating was done on standard disposable tissue culture Petri dishes from VWR (15 cm diameter, 10 mm height) and covered with 10 mL of agar in luria broth (Agar, microbiology tested powder, SIGMA-ALDRICH), which was prepared by adding 20 g of LB lennox (SIGMA-ALDRICH) and 15 g/L of agar to water and then autoclaved.
# Plated were samples at dilutions of 10^−6 and 10^−3 for low and high electric field treatments, respectively, and at 10^−6 and 10^−5 for controls All samples containing 100 μL of pulsed or diluted cultures were plated on LB agar plates and counted after overnight incubation at 37° C.
# Pulsing with drugs: bacterial samples of both gram-positive S. aureus and gram-negative E. coli strains were pulsed in a solution with 0.2, 2, and 20 μg/mL of tobramycin and compared to an un-pulsed drug-exposed control. Pulsing and plating were performed to ensure that the drug exposure time of the bacteria was approximately fifteen minutes.
# [3] = tested on: Stapphylococcus aureus (gram positive bacterium number 25923); assay: Inactivation of S. aureus by 300 ns electric pulses combined with antibiotic (CFU plating); assay type: cell-based, Staphylococcus aureus; conditions: 30 kV/cm treatment + 20 μg/ml dose, in 10 min
smiles,measurement,setting,value
CO[C@H]1/C=C/O[C@@]2(C)Oc3c(C)c(O)c4c(O)c(c(/C=N/N5CCN(C)CC5)c(O)c4c3C2=O)NC(=O)/C(C)=C\C=C\[C@H](C)[C@H](O)[C@@H](C)[C@@H](O)[C@@H](C)[C@H](OC(C)=O)[C@@H]1C [rifampicin],synergy (FIG. 11B legend),[1],approximately 2 log
same,log reduction of E. coli,"[2]; 20 μg/mL + 445 pulses of 30 kV/cm, consistent with complete sterilization",> 9 log
same,"synergy (additional kill off) compared to just the drug, E. coli","[2]; 20 μg/mL, EPs vs no EPs",4 log
same,additional log-reduction of E. coli compared to pulsing alone,[2]; EPs + 2 and 20 μg/mL,1.5 log
same,additional log-reduction of S. aureus,[3],1.5 log
